Measured values as given in ChEMBL document CHEMBL4219258, “Determination of absolute configuration and binding efficacy of benzimidazole-based FabI inhibitors through the support of electronic circular dichroism and MM-GBSA techniques” (Bioorg Med Chem Lett, 2018).

assay: Inhibition of Francisella tularensis FabI

Row | Structure (SMILES) | IC50
1 | C[C@@H](c1ccc(Cl)c(Cl)c1)n1cnc2cc3c(cc21)CCC3 | 16 nM
2 | C[C@@H](c1ccc(Cl)c(Cl)c1)n1cnc2cc3c(cc21)CCCC3 | 14 nM
3 | C[C@H](c1ccc(Cl)c(Cl)c1)n1cnc2cc3c(cc21)CCC3 | 1840 nM
4 | C[C@H](c1ccc(Cl)c(Cl)c1)n1cnc2cc3c(cc21)CCCC3 | 7800 nM
